Data from paper PMC7721897, “Metabolism and pharmacokinetics of a novel polyphenol fatty acid ester phloridzin docosahexaenoate in Balb/c female mice” (Scientific Reports, 2020).
Like-named read-outs stand apart in the source and are kept apart here.

What was measured:
[1] = test system: MCF-10A cells; experiment: Cellular uptake assay (UPLC-ESI-MS/MS of cell lysates); assay type: cell-based, human; conditions: 20 μM, 72 h
Method: (§1) Figure 1 Conjugation of PZ with DHA increases the cellular uptake and stability of PZ and DHA. The cells were treated with 20 μM of PZ, DHA or PZ-DHA and cultured for 72 h at 37 °C. Cells were harvested and washed thoroughly using cold PBS. Cells were lysed in cold acetone containing 0.05 mg/mL quercetin, and cell lysates were collected by centrifugation and analyzed by using UPLC-ESI-MS/MS. (A) mean % cellular uptake of PZ, DHA and PZ-DHA. (B) fold increase in intracellular PZ and DHA when conjugated. ANOVA multiple means statistical comparison method was performed and differences among means were compared using Tukey’s test; *p < 0.05. (MDA-MB-231 p = 0.008; MDA-MB-468 p = 0.01; 4T1 p = 0.02; MCF-7 p = 0.01; MCF-10A p = 0.0005).
(§2) Cells were seeded at a density of 3 × 10^5 cells (MDA-MB-231, MDA-MB-468, MCF-7, and MCF-10A) or 1 × 10^5 cells (4T1) /T-75 flask. The cells were cultured overnight to promote cell adhesion. Adherent cells were treated with a sub-cytotoxic concentration (20 μM) of PZ, DHA or PZ-DHA and cultured for 72 h at 37 °C. The supernatant was carefully removed, and cell monolayers were washed with cold PBS. Cells were harvested using TrypLE Express and washed thoroughly with cold PBS. […] The sample was analyzed using a UPLC/ESI/MS system. The percentage cell uptake of the total dose was quantified using standard curves of PZ (R^2 = 0.99), DHA (R^2 = 0.98) or PZ-DHA (R^2 = 0.99) made in methanol.
(§3) PZ-DHA and/or PZ-DHA metabolites in malignant/non-malignant epithelial cell lysates, in vitro microsome enzyme reaction mixtures, and mouse serum aliquots were determined using UPLC-ESI–MS/MS instrument (Waters Limited, Mississauga, ON, Canada). All mass spectroscopic analyses were performed using mass scan (full-scan, identification of unknowns) and single ion monitoring (SIM; quantification of PZ, DHA, PZ-DHA, and quercetin) modes of a Waters H-class UPLC separations module coupled with a Micromass Quattro micro API MS/MS system and MassLynx V4.0 control software. […]

[2] = test system: MCF-7 cells; experiment: as above; assay type: cell-based, human; conditions: 20 μM, 72 h
Method: as §1, §2, §3

[3] = test system: MDA-MB-468 cells; experiment: as above; assay type: cell-based, human; conditions: 20 μM, 72 h
Method: as §1, §2, §3

[4] = Tissue distribution of PZ-DHA and metabolites after intraperitoneal injection; assay type: in vivo, Balb/c female mice; conditions: female, Balb/c, mouse, intraperitoneal, 100 mg/kg
Method: Figure 5 PZ-DHA and metabolites were detected in various organs of PZ-DHA-treated Balb/c female mice. PZ-DHA (100 mg/kg) was administered by intraperitoneal injection to Balb/c female mice and liver, lungs, kidneys, spleen and brain were harvested. Organs were homogenized and PZ-DHA in (A) liver, kidneys, lungs, spleen, and brain was identified and quantified using a calibration curve. The abundance of (B) 4,4′,6′-tri-O-methyl-phloridzin docosahexaenoate in liver, kidneys, lungs, and serum) and (C) phloridzin docosahexaenoate-4,4′-di-O-sulphide in the liver was determined in PZ-DHA equivalence.
Pharmacokinetic parameters and in vivo generation of PZ-DHA metabolites were studied using Balb/c female mice. Mice were randomly divided into six groups (n = 4/group) and PZ-DHA (100 mg/kg) was administered by intraperitoneal injection. For each mouse, a single blood collection was performed by cardiac puncture at one of six different time points (t = 15, 30, 60, 90, 120, and 240 min). At the end of blood collection, mice were euthanized by cervical dislocation and organs (liver, lungs, kidneys, spleen, and brain) were harvested. Blood samples were allowed to clot by leaving undisturbed at room temperature for 1 h, and serum was separated by centrifuging at 2000×g for 10 min at 4 °C. The serum was carefully removed and stored on ice until further processing. Serum proteins were precipitated by incubating an aliquot of serum with a mixture of acetonitrile:acetone (80:20) containing 0.1 mg/mL quercetin (internal standard) at 4 °C overnight. The supernatant was separated by centrifuging at 14,000×g for 10 min at 4 °C. Excess solvent was evaporated using nitrogen flush and mixed with methanol and filtered. PZ-DHA-metabolites in the filtrate were identified using a UPLC-ESI–MS/MS (Waters Limited, Mississauga, ON, Canada). Organs were homogenized in PBS (1:5 w/v). Supernatants were collected by centrifugation at 14,000 × g for 15 min at 4 °C. Proteins were precipitated by incubating in acetonitrile:acetone (80:20) containing 0.1 mg/mL quercetin (internal standard) at 4 °C overnight. Supernatants were treated as explained above, and PZ-DHA and/or PZ-DHA-metabolites were identified.

[5] = design: method as in PMID 31473253; conditions: 100 mg/kg body weight via intraperitoneal injections; cited from earlier work
[6] = test system: mammary carcinoma cells (MDA-MB-231, MDA-MB-468, 4T1, MCF-7) and MCF-10A; design: method as in PMID 27535497; conditions: cited from earlier work
[7] = brain/serum, read-out: Tissue/serum ratio of PZ-DHA (Mean ± SD) Brain/serum
[8] = kidneys/serum, read-out: Tissue/serum ratio of PZ-DHA (Mean ± SD) Kidneys/serum
[9] = liver/serum, read-out: Tissue/serum ratio of PZ-DHA (Mean ± SD) Liver/serum
[10] = lungs/serum, read-out: Tissue/serum ratio of PZ-DHA (Mean ± SD) Lungs/serum
[11] = spleen/serum, read-out: Tissue/serum ratio of PZ-DHA (Mean ± SD) Spleen/serum

For `CC/C=C\C/C=C\C/C=C\C/C=C\C/C=C\C/C=C\CCC(=O)OC[C@H]1O[C@@H](Oc2cc(O)cc(O)c2C(=O)CCc2ccc(O)cc2)[C@H](O)[C@@H](O)[C@@H]1O` [PZ-DHA, phloridzin docosahexaenoate], the “PZ-DHA uptake and fold-increase in intracellular PZ and DHA versus the malignant cells” value [1] was “similar”, the “cellular uptake (as a % of the dose)” value [2] was 21% and the “cellular uptake (as a % of the dose)” value [3] was 50%. For the same compound, the Kp at 15 min [4, 7] was 0.51 ± 0.17, the Kp at 30 min [4, 7] was 0.64 ± 0.11 and the Kp at 60 min [4, 7] was 0.95 ± 0.68. It also gave a Kp at 90 min [4, 7] of 1.01 ± 0.19, a Kp at 120 min [4, 7] of 1.31 ± 0.67 and a Kp at 240 min [4, 7] of 1.94 ± 0.75. The Kp at 15 min [4, 8] was 0.66 ± 0.03, the Kp at 30 min [4, 8] was 1.29 ± 0.22 and the Kp at 60 min [4, 8] was 0.81 ± 0.34. For the same compound, the Kp at 90 min [4, 8] was 0.89 ± 0.26, the Kp at 120 min [4, 8] was 2.71 ± 1.41 and the Kp at 240 min [4, 8] was 2.71 ± 1.08. For the same compound, the Kp at 15 min [4, 9] was 0.14 ± 0.06, the Kp at 30 min [4, 9] was 0.16 ± 0.08 and the Kp at 60 min [4, 9] was 4.68 ± 2.02. The Kp at 90 min [4, 9] was 2.69 ± 2.17, the Kp at 120 min [4, 9] was 1.03 ± 0.73 and the Kp at 240 min [4, 9] was 0.99 ± 0.23. It also gave a Kp at 15 min [4, 10] of 3.33 ± 1.51, a Kp at 30 min [4, 10] of 2.04 ± 1.09 and a Kp at 60 min [4, 10] of 1.05 ± 0.014. For the same compound, the Kp at 90 min [4, 10] was 3.51 ± 2.44, the Kp at 120 min [4, 10] was 3.82 ± 1.74 and the Kp at 240 min [4, 10] was 4.97 ± 1.37. The Kp at 15 min [4, 11] was 3.29 ± 1.56, the Kp at 30 min [4, 11] was 3.17 ± 0.72 and the Kp at 60 min [4, 11] was 4.18 ± 1.01. For the same compound, the Kp at 90 min [4, 11] was 5.24 ± 1.75, the Kp at 120 min [4, 11] was 10.9 ± 8.42 and the Kp at 240 min [4, 11] was 16.1 ± 5.98. For the same compound, the “liver or kidney toxicity” value [5] was “does not show liver or kidney toxicity” and the “selective cytotoxicity, malignant versus non-malignant cells” value [6] was “selectively kills mammary carcinoma cells”.
